Assay results as given in patent US7026330B2, “Methods for treatment of acute lymphocytic leukemia” (The Children's Hospital of Philadelphia, priority 2002, dated 2006).
Entries after “also recorded” stand apart in the source; their conditions may differ. Where two headings read alike, the source gives them in different places.

How the values were obtained:
[1] = test system: Eμ-RET+ transgenic mice with overt disease; conditions: for Plt, mean / WBC, mean / Weight, mean: treated group
Protocol: Mice were assessed three times a week for overt signs of disease (enlarged lymph nodes, organomegaly, and anemia). […] Prior to randomization, easily accessible enlarged lymph nodes were biopsied for cell culture and further in vitro study. Peripheral blood for CBC with differential (HemaVet 850FS, Cell Technologies, Oxford, Conn.) and pK studies was obtained by eye bleeding at days 0, 7, 14 and then every other week until death. Peripheral blood as well as single cell suspension from bone marrow, lymph nodes and/or spleen was obtained at death. Weights were monitored three times a week. […] Animals were sacrificed when moribund. Event free survival (EFS) was determined from onset of disease until death, and analyzed using STATA 7.0 (STATA Corporation, College Park, Tex.).

[2] = cited from earlier work; for trough concentration: Phase III studies with cyclosporine, steroid, or both; for mean time-to-peak concentration: oral
[3] = test system: Eμ-RET+ transgenic mouse derived cell lines, #83, T309, #289, #420.2; test: MTT proliferation assay, ALL cell lines; assay type: cell-based
Protocol: (§1) Cell Preparation and Cell Culture Conditions. A single cell suspension of bone marrow or lymph nodes from leukemic Eμ-RET+ transgenic mice was prepared [Wasserman, 1998]. These ALL cells were maintained at 37° C. with 5% CO2 in RPMI-1640, L-Glutamine, 10 mM HEPES, 1 mM Sodium Pyruvate, 100 μM non-essential amino acids, 100 U/ml penicillin, 100 μg/ml streptomycin (GibCo-BRL, Rocksville, Md.), 50 μM 2-mercaptoethanol (FisherScientific, Fair Lawn, N.J.)+10% Fetal Calf Serum (HyClone, Logan, Utah)+10% Calf Serum (HyClone, Logan Utah) (C20 media) with 10 U/ml IL-7. Cell surface markers on these cells were determined by flow cytometry as described previously [Wasserman, 1998], and the phenotype was stable in culture over time.
(§2) Proliferation Assays. Cells were cultured in IL-7-free C20 media for 24 hours. […] Cell growth was assayed using methyl-thiazole-tetrazolin (MTT) [Mosmann, 1983]. After removing 50 μl media from each well, 10 μl MTT, 5 mg/ml, (Sigma, St. Louis, Mo.) was added to each sample and incubated for 4 hours. 150 μl 1% HCL/Isopropanol was added to each sample and mixed vigorously until all crystals dissolved. Absorbance was measured at OD595 using microplate spectrophotometer (Benchmark Microplate Reader, Bio-Rad Laboratories, Hercules, Calif.). Results are expressed as mean of absolute absorbance numbertreated sample divided by the mean of absolute absorbance numbercontrol sample. Results >1 indicates proliferation whereas results <1 indicates growth inhibition.

[4] = test system: pro-B ALL cell line T309; test: Apoptosis assay (Annexin V-FITC, flow cytometry); assay type: cell-based, mouse; conditions: 72 hours, baseline 24%
Protocol: Apoptosis Assay. […] Levels of exposed phosphotidylserine on viable cells were measured using the ApoAlert Annexin V detection kit (Clontech, Palo Alto, Calif.). Cells were incubated with FITC-conjugated Annexin V, and log fluorescence intensity was analyzed by flow cytometry using a FACScan cytometer (Becton-Dickinson, Franklin Lakes, N.J.).

[5] = cited from earlier work
[6] = test system: steroid refractory severe acute GVHD; conditions: cited from earlier work
[7] = test system: Eμ-RET+ mice with advanced leukemia; test: RAD001 in the ALL mouse model; assay type: in vivo; conditions: daily oral administration
Excerpt: RAD001 inhibits growth >50–90% in ALL cell lines. Daily oral administration of RAD001 extends survival almost 4 fold in Eμ-RET+ mice with advanced leukemia (high white blood count, large nodal masses, and massive hepatosplenomegaly) as compared to untreated littermates.

[8] = test system: ALL cell lines; test: RAD001 growth suppression in ALL cells in vitro; assay type: cell-based
[9] = test system: cell line #83; test: MTT proliferation assay, cell line #83; assay type: cell-based, mouse; conditions: increasing rmIL-7 0–30 U/ml, no stroma, 4–5 days
Protocol: as §1
as §2, with “150 μl 1% HCL/Isopropanol was added to each sample and mixed vigorously until all crystals dissolved.” left out, “Results >1 indicates proliferation whereas results <1 indicates growth inhibition.” left out

[10] = test system: YES proto-oncogene; test: mRNA expression in ALL cells (Affymetrix MG-U74Av4 Genechips); assay type: cell-based; conditions: addition of IL-7
Excerpt: We found the most profound change in expression in the YES proto-oncogene, a member of the src family of kinases. […] However, the ability of IL-7 to reverse rapamycin-induced growth inhibition may involve other target proteins downstream of p70S6 kinase, such as p27kip1 or cdk2.

[11] = test system: #781 cell line; test: MTT proliferation assay, cell line #781; assay type: cell-based, mouse; conditions: increasing rmIL-7 0–30 U/ml, no stroma, 4–5 days
Protocol: as §1
as §2, with “150 μl 1% HCL/Isopropanol was added to each sample and mixed vigorously until all crystals dissolved.” left out, “Results >1 indicates proliferation whereas results <1 indicates growth inhibition.” left out

[12] = test system: phosphor-p70S6 kinase (Thr389); test: Immunoblotting of p70S6 kinase in ALL cell line #289; assay type: cell-based, mouse; conditions: 4 hours
Protocol: Crude Lysate Preparation and Immunoblotting. […] After harvesting, cells were washed with ice cold PBS and then lysed in 100 μl of 1% Triton-X containing protease and phosphatase inhibitors (1 μg/ml apoprotinin, 1 μg/ml leupeptin, 1 mM […], 1 mM NaF, 0.1 mM AEBSF) at 4° C. for 5 minutes. Crude lysates were obtained by centrifugation (12,000 rpm at 4° C. for 20 minutes). Protein concentrations were determined using Bio-Rad Protein assay kit (Bio-Rad Laboratories, Hercules, Calif.). Equal amounts of protein were analyzed by 4–12% Tris-Bis gel electrophoresis and transferred to PVDF membranes (NuPage Invitrogen, Carlsbad, Calif.). Specific proteins were detected with anti-Phosphor-p70S6 kinase (Thr389) and anti-total p70S6 kinase antibodies (Cell Signaling Technologies, Beverly, Mass.) diluted in TTBS (1:500). Immunodetection was performed with horseradish peroxidase-conjugated anti-rabbit IgG and then developed by chemoluminescence (Amersham Pharmacia Biotech, Piscataway, N.J.). Immunoblots were stripped for reprobing by incubating immunoblots in stripping buffer (100 mM 2-mercaptoethanol, 2% sodium dodecyl sulphate, 62.5 mM Tris-HCl pH 6.7) for 30 minutes in 37° C. water bath with occasional agitation. […] Specific proteins were immunoblotted and detected as above.

[13] = test system: A20 mature B cell line; test: Proliferation of mature B cell line A20; assay type: cell-based; conditions: data not shown
Protocol: as §2

[14] = test system: cell line #420.2; test: MTT proliferation assay, cell line #420.2; assay type: cell-based, mouse; conditions: increasing rmIL-7 0–30 U/ml, no stroma, 4–5 days
Protocol: as §1
as §2, with “150 μl 1% HCL/Isopropanol was added to each sample and mixed vigorously until all crystals dissolved.” left out, “Results >1 indicates proliferation whereas results <1 indicates growth inhibition.” left out

[15] = test system: ALL cell line #289; test: MTT proliferation assay, cell line #289; assay type: cell-based, mouse
Protocol: as §1, §2

[16] = test system: cell line T309; test: MTT proliferation assay, cell line T309; assay type: cell-based, mouse; conditions: increasing rmIL-7 0–30 U/ml, no stroma, 4–5 days
Protocol: as §1
as §2, with “150 μl 1% HCL/Isopropanol was added to each sample and mixed vigorously until all crystals dissolved.” left out, “Results >1 indicates proliferation whereas results <1 indicates growth inhibition.” left out

[17] = Mus musculus, 72 h, read-out: inhibition of growth

CO[C@H]1C[C@@H]2CC[C@@H](C)[C@@](O)(O2)C(=O)C(=O)N2CCCC[C@H]2C(=O)O[C@H]([C@H](C)C[C@@H]2CC[C@@H](O)[C@H](OC)C2)CC(=O)[C@H](C)/C=C(\C)[C@@H](O)[C@@H](OC)C(=O)[C@H](C)C[C@H](C)/C=C/C=C/C=C/1C [rapamycin]
mean hemoglobin and platelet counts, untreated vs rapamycin treated mice ([1]; 5 mg/kg IP daily): not significantly different | time to normalization of WBC after instituting therapy ([1]; 5 mg/kg IP daily): 7 to 10 days | weights of treated versus untreated groups ([1]; 5 mg/kg IP daily): not significantly different | average time from diagnosis to death ([1]; 5 mg/kg IP daily, N=34, untreated 12 days (N=23), p<0.001): 30 days | extension of survival vs untreated mice ([1]; 5 mg/kg IP daily, single agent, advanced disease): ~3 fold | WBC nadir of the typical mouse of FIG. 8 ([1]; after 14 days of rapamycin, WBC 28.8 at presentation): 3.2 | Plt, mean ([1]; D0): 695000 µL⁻¹ | WBC, mean ([1]; D0): 47800 µL⁻¹ | Weight, mean ([1]; D0): 25.6 grams | Plt, mean ([1]; D7): 584000 µL⁻¹ | WBC, mean ([1]; D7): 18500 µL⁻¹ | Weight, mean ([1]; D14): 28.1 grams | Plt, mean ([1]; at sacrifice): 573000 µL⁻¹ | WBC, mean ([1]; at sacrifice): 31000 µL⁻¹ | Weight, mean ([1]; at sacrifice): 28.10 grams | Plt, mean ([1]; d21): 526000 µL⁻¹ | WBC, mean ([1]; d21): 14300 µL⁻¹ | trough concentration ([2]; 2 mg/day): 8.58 ± 4.0 ng/mL | trough concentration ([2]; 5 mg/day): 17.3 ± 7.4 ng/mL | elimination of the drug via the GI tract ([2]; human, in vivo): 91% | metabolism ([2]; human, in vivo): intestinal and hepatic CYP3A4 enzyme family | time to near steady-state concentrations ([2]; loading dose of 3 times the maintenance dose, most patients): ≤ 1 days | mean time-to-peak concentration ([2]; healthy subjects): 1 h | mean time-to-peak concentration ([2]; renal transplant recipients): 2 h | typical serum levels of patients ([2]; patients on rapamycin [MacDonald, 2000]): 8 to 12 ng/mL | half-lives ([2]; pediatric patients 5–11 years): shorter | oral clearances ([2]; pediatric patients 5–11 years): greater | dose dependence of concentrations ([2]; stable renal transplant patients, between 3 and 12 mg/m^2): dose proportional | inhibition at 0.001 µg/mL [3, 17]: > 40% | inhibition at 0.1 µg/mL [3, 17]: > 70% | cells labeled with Annexin V ([4]; 1 ng/ml rapamycin): 44% | cells labeled with Annexin V ([4]; 100 ng/ml rapamycin): 51% | major side effects ([5]; adult organ rejection trials, 2 mg or 5 mg daily with cyclosporine and corticosteroids): thrombocytopenia, hypercholesteremia, hypertriglyceridemia, and diarrhea | toxicities of CTC Grade III and IV ([5]; pediatric kidney transplantation, with corticosteroids and MMF): stomatitis, hypercholesteremia, and hypertriglyceridemia | toxicity in single dosing studies ([5]; single doses ranging from 3–21 mg/m^2): No toxicity | discontinuation of drug because of toxicities ([6]; 21 patients): 5 patients | hemolytic uremic syndrome developed ([6]; cyclosporine dose not reduced): 5 patients | most common side effects ([6]; in vivo): thrombocytopenia and neutropenia, elevated serum triglycerides and cholesterol

CO[C@H]1C[C@@H]2CC[C@@H](C)[C@@](O)(O2)C(=O)C(=O)N2CCCC[C@H]2C(=O)O[C@H]([C@H](C)C[C@@H]2CC[C@@H](OCCO)[C@H](OC)C2)CC(=O)[C@H](C)/C=C(\C)[C@@H](O)[C@@H](OC)C(=O)[C@H](C)C[C@H](C)/C=C/C=C/C=C/1C [RAD001, everolimus]
extension of survival vs untreated littermates [7]: ~4 fold | nodal masses [7]: disappearance of nodal masses | peripheral WBC counts [7]: normalization of peripheral WBC counts | growth inhibition [8]: 50–90%

B1: rmIL-7: recombinant mouse IL-7 (rmIL-7) (Leinco Technologies, Inc.) (protein, UniProt P10168 26-154, looked up)
Interleukin-7: ECHIKDKEGKAYESVLMISIDELDKMTGTDSNCPNNEPNFFRKHVCDDTKEAAFLNRAARKLKQFLKMNISEEFNVHLLTVSQGTQTLVNCTSKEEKNVKEQKKNDACFLKRLLREIKTCWNKILKGSI
increase in proliferation [9]: ~100 fold | effect on YES expression in rapamycin-treated cells [10]: completely rescued | increase in proliferation [11]: 16 fold | effect on rapamycin-induced decrease in phosphor-p70S6 kinase ([12]; 10 U/ml IL-7 + 100 ng/ml rapamycin, listed as IL-7): reversed; also recorded: restored to baseline | p70S6 kinase total protein levels ([12]; 100 ng/ml rapamycin or 10 U/ml IL-7): unchanged | concentration at which the response appears to plateau ([3]; cell lines #83, #781, T309, #289, #420.2): 10–30 U/ml | proliferation [13]: not affected | increase in proliferation [14]: 2.2 fold | increase in proliferation ([15]; increasing rmIL-7 0–30 U/ml, no stroma, 4–5 days): 2.2 fold | reversal of rapamycin-induced growth inhibition ([15]; rmIL-7 10 U/ml with rapamycin 1 ng/ml, 3 days): completely reverses | reversal of rapamycin's effect on cell growth ([15]; rmIL-7 10 U/ml with rapamycin 100 ng/ml, 3 days, only partial): ~80 % of baseline | increase in proliferation [16]: 3.7 fold
